Assay results taken from ChEMBL document CHEMBL1128757, “Linear peptide ETA antagonists: rational design and practical derivatization of N-terminal amino- and imino-carbonylated tripeptide derivatives” (Bioorg Med Chem Lett, 1995).

Assays:
Endothelin-1 receptor [1] = molecular target: T1, Endothelin-1 receptor (Sus scrofa, UniProt Q29010); test: Binding affinity against ETA receptor in porcine aortic smooth muscle membrane was determined
T1 sequence (Q29010 whole entry): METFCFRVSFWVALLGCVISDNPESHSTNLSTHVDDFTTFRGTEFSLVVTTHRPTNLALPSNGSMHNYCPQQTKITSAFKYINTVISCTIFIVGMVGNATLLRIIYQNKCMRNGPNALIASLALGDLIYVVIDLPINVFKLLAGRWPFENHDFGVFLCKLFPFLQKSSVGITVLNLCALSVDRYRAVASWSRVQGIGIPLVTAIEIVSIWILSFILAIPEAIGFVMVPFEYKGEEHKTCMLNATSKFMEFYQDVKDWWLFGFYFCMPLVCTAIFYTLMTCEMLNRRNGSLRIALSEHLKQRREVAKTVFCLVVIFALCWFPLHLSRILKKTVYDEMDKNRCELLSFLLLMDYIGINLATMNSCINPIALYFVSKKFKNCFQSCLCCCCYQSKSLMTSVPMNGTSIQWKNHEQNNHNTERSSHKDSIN

Endothelin-1 receptor [2] = molecular target: T1, Endothelin-1 receptor; test: Binding affinity against ETA receptor in porcine aortic smooth muscle membrane
Endothelin-1 receptor [3] = molecular target: T1, Endothelin-1 receptor; test: Binding affinity determined against ETA receptor in porcine aortic smooth muscle membrane
Endothelin-1 receptor [4] = molecular target: T1, Endothelin-1 receptor; test: Antagonistic activity towards ET- l-induced contraction in porcine coronary arteries; format: functional; conditions: read-out: pA2 (converted)

IC50 (Endothelin-1 receptor [2]) [µM]	IC50 max (Endothelin-1 receptor [3]) [µM]	SMILES	further results
		CC(C)CC(=O)N[C@@H](CC(C)C)C(=O)N[C@H](Cc1c[nH]c2ccccc12)C(=O)N[C@H](CC(=O)O)C(=O)O	IC50 (Endothelin-1 receptor [1]): 25 µM
		CC(C)C[C@H](NC(=O)[C@H](N)C(C)C)C(=O)N[C@H](Cc1c[nH]c2ccccc12)C(=O)N[C@H](CC(=O)O)C(=O)O	IC50 (Endothelin-1 receptor [1]): 32 µM
0.42	0.27	CC(C)C[C@H](NC(=O)OC(C)(C)C)C(=O)NC(Cc1c[nH]c2ccccc12)C(=O)NCCC(=O)O (single isomer, unassigned)	
	0.081	CC(C)C[C@H](NC(=O)N1CCCCC1)C(=O)NC(Cc1c[nH]c2ccccc12)C(=O)NCCC(=O)O (single isomer, unassigned)	
	0.053	CC(C)C[C@H](NC(=O)N(CCO)C(C)(C)C)C(=O)NC(Cc1c[nH]c2ccccc12)C(=O)NCCC(=O)O (single isomer, unassigned)	
	0.31	CC(C)C[C@H](NC(=O)N1CCCC1)C(=O)NC(Cc1c[nH]c2ccccc12)C(=O)NCCC(=O)O (single isomer, unassigned)	
0.54	0.42	CC(C)C[C@H](NC(=O)Cc1cccs1)C(=O)NC(Cc1c[nH]c2ccccc12)C(=O)NCCC(=O)O (single isomer, unassigned)	
	0.055	CC(C)C[C@H](NC(=O)N1CCCCCCCCC1)C(=O)NC(Cc1c[nH]c2ccccc12)C(=O)NCCC(=O)O (single isomer, unassigned)	
6.7		CC(C)C[C@H](NC(=O)CC(C)(C)C)C(=O)NC(Cc1c[nH]c2ccccc12)C(=O)NCCC(=O)O (single isomer, unassigned)	
2.1		Cc1cccc(NC(=O)N[C@@H](CC(C)C)C(=O)NC(Cc2c[nH]c3ccccc23)C(=O)NCCC(=O)O)c1 (single isomer, unassigned)	
	0.051	CC(C)C[C@H](NC(=O)N1C(C)CCCC1C)C(=O)NC(Cc1c[nH]c2ccccc12)C(=O)NCCC(=O)O (single isomer, unassigned)	
3.2		CC(C)C[C@H](NC(=O)NCc1ccccc1)C(=O)NC(Cc1c[nH]c2ccccc12)C(=O)NCCC(=O)O (single isomer, unassigned)	
	0.58	CC(C)C[C@H](NC(=O)N1CCC(C)CC1)C(=O)NC(Cc1c[nH]c2ccccc12)C(=O)NCCC(=O)O (single isomer, unassigned)	
		CC(C)CC(=O)N[C@@H](CC(C)C)C(=O)NC(Cc1c[nH]c2ccccc12)C(=O)NCCC(=O)O (single isomer, unassigned)	IC50 (Endothelin-1 receptor [1]): 3.9 µM
0.97	0.62	CC(C)C[C@H](NC(=O)CC1CCCC1)C(=O)NC(Cc1c[nH]c2ccccc12)C(=O)NCCC(=O)O (single isomer, unassigned)	
0.23	0.15	CC(C)C[C@H](NC(=O)NC(C)(C)C)C(=O)NC(Cc1c[nH]c2ccccc12)C(=O)NCCC(=O)O (single isomer, unassigned)	
	0.53	CC(C)C[C@H](NC(=O)N1CCc2ccccc2C1)C(=O)NC(Cc1c[nH]c2ccccc12)C(=O)NCCC(=O)O (single isomer, unassigned)	
	0.061	CC(C)C[C@H](NC(=O)N1CCCCCC1)C(=O)NC(Cc1c[nH]c2ccccc12)C(=O)NCCC(=O)O (single isomer, unassigned)	Kb (Endothelin-1 receptor [4]): 0.0603 µM
	0.33	CC(C)C[C@H](NC(=O)NC12CC3CC(CC(C3)C1)C2)C(=O)NC(Cc1c[nH]c2ccccc12)C(=O)NCCC(=O)O (single isomer, unassigned)	
2.1		CC(C)C[C@H](NC(=O)Nc1cccc(Cl)c1)C(=O)NC(Cc1c[nH]c2ccccc12)C(=O)NCCC(=O)O (single isomer, unassigned)	
	0.057	CC(C)C[C@H](NC(=O)N(C(C)C)C(C)C)C(=O)NC(Cc1c[nH]c2ccccc12)C(=O)NCCC(=O)O (single isomer, unassigned)	
	0.56	CC(C)C[C@H](NC(=O)NCC(C)(C)C)C(=O)NC(Cc1c[nH]c2ccccc12)C(=O)NCCC(=O)O (single isomer, unassigned)	
	0.19	CC(C)C[C@H](NC(=O)N1C(C)(C)CCCC1(C)C)C(=O)NC(Cc1c[nH]c2ccccc12)C(=O)NCCC(=O)O (single isomer, unassigned)	
